Reference: patent publication US12084399B2, “Crystalline tranilast salts and their pharmaceutical use” (NUFORMIX TECHNOLOGIES LIMITED, priority 2018, dated 2024)
In brackets after ≈: the same amount, converted by molar mass. Where a name gives a salt, the structure may show the parent alone. Read-outs that look alike come from different tables or passages of the source.

Key:
[1] = Dissolution study in simulated intestinal fluid (FaSSIF V2); assay type: physicochemical; conditions: 50 ml FaSSIF V2, pH 6.5, 37° C.
Description: For BCS class II drugs, such as tranilast, the rate of dissolution of the drug form used in the gastrointestinal media can be the controlling factor in the overall absorption and thus the bioavailability of an oral drug. This becomes even more influential as the dose of a drug increases. For conditions such as fibrosis or cancer where a higher dose of tranilast may be needed for successful treatment, finding a form of tranilast that has a high dissolution rate is important. […] Pat. […] The dissolution study was carried out using the Pion inForm® instrument. Detection and quantification of tranilast was performed by in-situ UV-spectroscopy using a fibre-optic probe, allowing instantaneous data collection from the point of sample introduction.

[2] = cited from earlier work
[3] = pKa values and ΔpKa of tranilast and the salt formers
Description: When two solid components are successfully crystallised together to form a two-component molecular complex with a new unique solid-state crystalline structure this could result in either a salt or a cocrystal. Whether a salt or a cocrystal is formed is dependent on whether a proton transfer takes place between the two different components of the complex. If a proton is transferred from one component to the other resulting in ionic bonding then a crystalline salt results. If no proton transfer occurs and the components remain in their neutral state, held together only by hydrogen bonds, Van der Waals bonds etc, then a cocrystal is formed. Whether or not proton transfer takes place is governed by the difference in pKa values for the acidic and basic functional groups of each component.

[4] = Solid-state photostability study (UV irradiation, HPLC); conditions: for solid-state photostability (in words): UV irradiation up to 24 hours
Protocol: A 6-10 mg sample of each of the tranilast forms under investigation was spread over the bottom surface of a clear glass vial.

[5] = cited from earlier work; remark: listed apart in the source
[6] = buffer, 2 mg/ml
Protocol: (§1) A 2 mg sample of the four salt forms under investigation were each weighed into a clear glass vial. Each sample was dissolved in water (1 ml).

[7] = Solid-state accelerated stability, 40° C. and 75% relative humidity, 7 days, XRPD; assay type: physicochemical
Protocol: A study was carried out to examine the physical stability of the crystalline 1:1 tranilast N-methylglucamine salt polymorphs with respect to solid form conversion over time under accelerated conditions. […] After this time each sample was analysed by XRPD to observe any potential form changes.
A study was carried out to examine the physical stability of the 1:1 crystalline tranilast salts with respect to solid form conversion or deliquescence over time under accelerated conditions. […] Each sample was analysed by XRPD to observe any potential form changes.

[8] = for Solubility (mg/ml) in terms of the mass of tranilast dissolved: water pH7.0, 25° C., 24 hours
[9] = Solution photostability study (UV irradiation, HPLC); conditions: 2 mg dissolved in water (1 ml)
Protocol: as §1

[10] = Gravimetric vapour sorption (GVS) analysis; assay type: physicochemical; conditions: for moisture reversibly absorbed (GVS): across the 90% humidity range at 25° C.
Description: The moisture sorption isotherm graph obtained for the crystalline 1:1 tranilast N-methylglucamine Form I salt is shown in FIG. 5.
The moisture sorption isotherm graph obtained for the crystalline 1:1 tranilast N-methylglucamine Form II salt is shown in FIG. 10.

[11] = 600 mg daily dosage, inter-patient variation; cited from earlier work
[12] = Dissolution study in 5% aqueous dextrose solution; assay type: physicochemical; conditions: saline or isotonic, thermodynamic from solid, 50 ml 5% aqueous dextrose solution
Protocol: As this invention also relates to a method of preparing a liquid pharmaceutical formulation of tranilast for delivery, for example, as an injectable formulation, a liquid oral formulation or a nebulised inhaled formulation a study was also carried out to explore the dissolution rates of the crystalline tranilast salts of this invention in a suitable media. As liquid pharmaceutical formulations are usually made up in-situ at the bedside for immediate delivery it is important that these new solid forms of tranilast dissolve almost instantaneously for them to be suitable for use in a liquid pharmaceutical formulation. Whilst liquid oral formulations could be achieved by simply dissolving a drug in water prior to administration (the high aqueous solubility of the new crystalline tranilast salts would make this possible), a liquid formulation for inhaled or intravenous delivery requires the dissolution media to be isotonic. This is often achieved by using saline (0.9% sodium chloride in water) as the liquid formulation media. […] An alternative isotonic media suitable for preparing liquid pharmaceutical formulations for inhaled or intravenous administration is 5% aqueous dextrose solution. […] The results of this study can be seen in FIG. 41.

[13] = cited from earlier work; remark: listed apart in the source
[14] = exposed to light, listed as pure crystalline tranilast; cited from earlier work
[15] = dissolved or stored in solution, UV exposure; cited from earlier work
[16] = Solid-state stability under high humidity, 25° C. and 100% relative humidity, 7 days, XRPD; assay type: physicochemical; conditions: sealed container
Protocol: A second study was carried out to explore the solid-state stability of the crystalline 1:1 tranilast N-methylglucamine salt polymorphs under high humidity. Forms I and II of 1:1 tranilast N-methylglucamine salt (50 mg) were separately placed in a sealed container at 25° C. and 100% relative humidity and stored under these conditions for 7 days. After this time each sample was analysed by XRPD to observe any potential form changes.

[17] = Solid-state stability under high storage temperature, 90° C., 7 days, XRPD; assay type: physicochemical; conditions: oven at 90° C.
Protocol: A third study was carried out to explore the solid-state stability of the crystalline 1:1 tranilast N-methylglucamine salt polymorphs under high storage temperatures. Forms I and II of 1:1 tranilast N-methylglucamine salt (50 mg) were stored in an oven at 90° C. for 7 days. After this time each sample was analysed by XRPD to observe any potential form changes.

[18] = sealed container, 40° C. and 75% relative humidity, 7 days

Compound: COc1ccc(/C=C/C(=O)Nc2ccccc2C(=O)O)cc1OC [crystalline 1:1 tranilast sodium salt]
- solubility at 20 minutes ([1]; simulated intestinal fluid (FaSSIF V2), thermodynamic from solid, 20 minutes): 300 µg/mL
- apparent solubility relative to pure crystalline tranilast (in words) [2]: lower apparent solubility than pure tranilast
- apparent solubility relative to pure crystalline tranilast (in words) ([2]; listed as crystalline tranilast sodium salt): even less than that of pure tranilast

Compound: CNC[C@H](O)[C@@H](O)[C@H](O)[C@H](O)CO [N-methylglucamine]
- ΔpKa ([3]; pKa (protonated base) - pKa (acid), salt former versus tranilast): 6.27

Compound: CCNC[C@H](O)[C@@H](O)[C@H](O)[C@H](O)CO [N-ethylglucamine]
- % tranilast remaining after UV exposure ([4]; 2 h): 99.55%
- % tranilast remaining after UV exposure ([4]; 6 h): 99.61%
- % tranilast remaining after UV exposure ([4]; 24 h): 99.47%
- pKa ([5]; protonated basic functional group of the salt former): 9.52
- ΔpKa [3]: 6.27
- % tranilast remaining after UV exposure ([6]; 2 h): 84.13%
- % tranilast remaining after UV exposure ([6]; 6 h): 58.20%
- % tranilast remaining after UV exposure ([6]; 24 h): 35.90%

Compound: COc1ccc(/C=C/C(=O)Nc2ccccc2C(=O)[O-])cc1OC.O.[K+] [Tranilast Salt Potassium Monohydrate, Crystalline 1:1 Tranilast Potassium Monohydrate Salt]
- deliquescence [7, 18]: no signs of deliquescence
- solid form conversion (XRPD) [7, 18]: retained their original crystalline form

Compound: CCNC[C@H](O)[C@@H](O)[C@H](O)[C@H](O)CO.COc1ccc(/C=C/C(=O)Nc2ccccc2C(=O)O)cc1OC [Tranilast Salt N-ethylglucamine, Crystalline 1:1 Tranilast N-Ethylglucamine Salt]
- deliquescence [7, 18]: no signs of deliquescence
- solid form conversion (XRPD) [7, 18]: retained their original crystalline form

Compound: COc1ccc(/C=C/C(=O)Nc2ccccc2C(=O)O)cc1OC.OCCNCCO [Tranilast Salt Diethanolamine, Crystalline Tranilast Diethanolamine Salt]
- deliquescence [7, 18]: no signs of deliquescence
- solid form conversion (XRPD) [7, 18]: retained their original crystalline form

Compound: CNC[C@H](O)[C@@H](O)[C@H](O)[C@H](O)CO [N-methylglucamine Form II]
- % tranilast remaining after UV exposure ([4]; 2 h): 99.50%
- % tranilast remaining after UV exposure ([4]; 6 h): 99.58%
- % tranilast remaining after UV exposure ([4]; 24 h): 99.51%

Compound: NCCCC[C@H](N)C(=O)O [L-Lysine]
- % tranilast remaining after UV exposure ([4]; solid state, 2 hrs): 99.35%
- % tranilast remaining after UV exposure ([4]; solid state, 6 hrs): 99.53%
- % tranilast remaining after UV exposure ([4]; solid state, 24 hrs): 99.54%
- Solubility (mg/ml) in terms of the mass of tranilast dissolved [8]: 277 to 283 mg/mL
- % tranilast remaining after UV exposure ([9]; 2 hrs): 92.53%
- % tranilast remaining after UV exposure ([9]; 6 hrs): 55.98%
- % tranilast remaining after UV exposure ([9]; 24 hrs): 21.03%

Compound: COc1ccc(/C=C/C(=O)Nc2ccccc2C(=O)O)cc1OC.NC(=O)c1cccnc1 [1:1 tranilast nicotinamide cocrystal]
- solubility reached after 30 seconds ([1]; 30 seconds): 2700 µg/mL
- solubility after 5 minutes ([1]; 5 minutes): 1950 µg/mL
- solubility after 20 minutes ([1]; 20 minutes): 1700 µg/mL

Compound: CNC[C@H](O)[C@@H](O)[C@H](O)[C@H](O)CO.COc1ccc(/C=C/C(=O)Nc2ccccc2C(=O)O)cc1OC [Tranilast Salt N-methylglucamine Form II, Crystalline 1:1 Tranilast N-methylglucamine Form II Salt]
- moisture reversibly absorbed (GVS) ([10]; listed as crystalline 1:1 tranilast N-methylglucamine form II salt): 0.42 % w/w

Compound: COc1ccc(/C=C/C(=O)Nc2ccccc2C(=O)O)cc1OC [Tranilast, 2-[[3-(3,4-dimethoxyphenyl)-1-oxo-2-propenyl]amino] benzoic acid]
- pKa ([5]; carboxylic acid group of tranilast): 3.25
- plasma concentrations of the drug [11]: 30 to 300 µM
- solubility at 1 minute ([12]; 1 minute): 1 µg/mL (≈ 3.05 µM)
- solubility at 1 hour ([12]; 1 hour): 60 µg/mL (≈ 183 µM)
- solubility in pH 1.2 buffer solution ([13]; pH 1.2 buffer solution): 0.7 μg/ml
- solubility in water ([13]; water): 14.5 µg/mL (≈ 44.3 µM)
- Solubility ([13]; water, comparative literature value in Table 16): 14.5 µg/mL (≈ 44.3 µM)
- solid-state photostability (in words) [14]: photostable
- photochemical stability in solution (in words) [15]: photochemically unstable

Compound: CNC[C@H](O)[C@@H](O)[C@H](O)[C@H](O)CO.COc1ccc(/C=C/C(=O)Nc2ccccc2C(=O)O)cc1OC [Tranilast Salt N-methylglucamine Form I, Crystalline 1:1 Tranilast N-methylglucamine Form I Salt]
- aqueous solubility (mass of salt) ([8]; pH 7): greater than 1000 mg/ml
- form conversion in GVS (XRPD) ([10]; XRPD of the sample at 0% RH and 90% RH): did not demonstrate any form conversion
- moisture reversibly absorbed (GVS) ([10]; listed as crystalline 1:1 tranilast N-methylglucamine Form I salt): 1.4 % w/w
- solid form conversion (XRPD) [16]: retained their original crystalline form
- solid form conversion (XRPD) [17]: retained their original crystalline form
- solid form conversion (XRPD) [7, 18]: retained their original crystalline form

Compound: CCNCC [Diethylamine]
- % tranilast remaining after UV exposure ([4]; solid state, 2 hrs): 99.57%
- % tranilast remaining after UV exposure ([4]; solid state, 6 hrs): 99.61%
- % tranilast remaining after UV exposure ([4]; solid state, 24 hrs): 99.63%
- % tranilast remaining after UV exposure ([9]; 2 hrs): 92.06%
- % tranilast remaining after UV exposure ([9]; 6 hrs): 52.30%
- % tranilast remaining after UV exposure ([9]; 24 hrs): 20.72%

Compound: NCCCC[C@H](N)C(=O)O [Lysine]
- ΔpKa [3]: 5.70

Compound: COc1ccc(/C=C/C(=O)Nc2ccccc2C(=O)O)cc1OC.NCCCC[C@H](N)C(=O)O [Tranilast Salt L-Lysine, Crystalline 1:1 Tranilast L-Lysine Salt]
- solid-state photostability (in words) ([4]; solid state): photostable
- deliquescence [7]: no signs of deliquescence
- solid form conversion (XRPD) [7]: retained their original crystalline form

Compound: CCNCC.COc1ccc(/C=C/C(=O)Nc2ccccc2C(=O)O)cc1OC [Tranilast Salt Diethylamine, Crystalline 1:1 Tranilast Diethylamine Salt]
- solid-state photostability (in words) ([4]; solid state): photostable
- Solubility (mg/ml) in terms of the mass of tranilast dissolved [8]: 18 to 20 mg/mL
- deliquescence [7, 18]: no signs of deliquescence
- solid form conversion (XRPD) [7, 18]: retained their original crystalline form

Compound: COc1ccc(/C=C/C(=O)Nc2ccccc2C(=O)O)cc1OC.NCCO [Tranilast Salt Ethanolamine, Crystalline Tranilast Ethanolamine Salt]
- deliquescence [7, 18]: no signs of deliquescence
- solid form conversion (XRPD) [7, 18]: retained their original crystalline form
